According to patent US20120027815A1, “USE OF PLASMA MEMBRANE CALCIUM ATPASE (PMCA) INHIBITORS TO INHIBIT SPERM MOBILITY” (priority 2003, published 2012):

Key:
[1] = test system: PMCA; settings: in vitro; cited from earlier work
[2] = test system: sperm; assay: Suppression of sperm mobility, manual counting of motile vs non-motile sperm; format: cell-based, mouse; settings: incubated 1 hour at 37° C., 30% non-motile without inhibitor
Procedure: The inhibition of sperm function, i.e. the inhibition of sperm mobility, was determined as follows:
PMCA4-deficient male mice were sacrificed and the epididymis of each was prepared. These tissues were placed into 2 ml of a sperm preparation medium (“Sperm Preparation Medium” from the MediCult a/s Company, Möllehaven 12, 4040 Jyllinge, Denmark, comprising: Earle's balanced saline solution, sodium pyruvate, synthetic serum substitute, IIEPES [hydroxy-ethyl-piperazine ethanesulphonic acid], sodium bicarbonate, human serum albumen; penicillin 50,000 IU/liter and streptomycin 50 mg/litre; Kahn, J. A., Human Reproduction 8/9, pages 1414-1419, 1993; Lähteenmaki, A., Human Reproduction 10/1, pages 142-147, 1995) and a subsequent incision was made using a sterile scalpel. All functioning sperm were allowed 15 minutes to swim out of the epididymis. The supernatant containing these sperm was removed and mixed with 500 μl each of increasing concentrations of 5- and 6-carboxyeosindiacetate succinimidyl ester (CE). Following this step, the sperm were incubated for 1 hour at 37° C. CE diffuses into the sperm during this time; the ester is hydrolyzed on the intracellular level. Afterwards, the remaining motile sperm were counted in relation to the non-motile ones.

[3] = test system: normal sperm; assay: Inhibition of sperm motility evaluated automatically with the CASA System 4.2; format: cell-based, mouse; settings: Group C: normal sperm, 45 minutes after preparation, 37° C., 30 minutes with 20 μM inhibitor
Procedure: PMCA4-deficient male mice were sacrificed and the epididymis of each was prepared. These tissues were placed into 2 ml of a sperm preparation medium (“Sperm Preparation Medium” from the MediCult a/s Company, Möllehaven 12, 4040 Jyllinge, Denmark, comprising: Earle's balanced saline solution, sodium pyruvate, synthetic serum substitute, IIEPES [hydroxy-ethyl-piperazine ethanesulphonic acid], sodium bicarbonate, human serum albumen; penicillin 50,000 IU/liter and streptomycin 50 mg/litre; Kahn, J. A., Human Reproduction 8/9, pages 1414-1419, 1993; Lähteenmaki, A., Human Reproduction 10/1, pages 142-147, 1995) and a subsequent incision was made using a sterile scalpel. All functioning sperm were allowed 15 minutes to swim out of the epididymis. […] Afterwards, the remaining motile sperm were counted in relation to the non-motile ones.
The inhibition of sperm motility was further evaluated automatically using the CASA System 4.2 from the medeaLAB Company, Erlangen, Germany. […]
For the above automated experimental protocol, the incubation time (compared to manual counting) was shortened (only 30 minutes instead of 1 hour) and the software also recorded non-meaningful objects that were present in the sample, such objects could be readily excluded with manual counting.

Row | Substance | Binding to PMCA and influence on PMCA function [1] | Non-motile sperm ([2]; CE concentration 5 μM) [%] | Non-motile sperm ([2]; CE concentration 20 μM) [%] | Non-motile sperm ([2]; CE concentration 100 μM) [%] | locally mobile or non-motile ([3]; untreated Group A 27%) [%] | Progressive motility ([3]; untreated Group A 73%) [%]
1 | Caloxin 2A1: polypeptide with the amino acid sequence VSNSNWPSFPSSGGG, acts extracellularly on PMCA | binds extra-cellularly to PMCA and has an inhibitory influence on the function of the PMCA | – | – | – | – | –
2 | 5- and 6-carboxyeosindiacetate succinimidyl ester | – | 90 | 95 | 97 | 78 | 22
